Consider nine compounds from patent US6855730B2, “3-methylidenyl-2-indolinone modulators of protein kinase” (Sugen, Inc., priority 1998, dated 2005).

The target in the experiment is T1, 3T3 cell line genetically engineered to express human EGF-R (Homo sapiens, UniProt P00533).
T1 construct: expressed in transfected cells; host or cells: 3T3
The experiment is described as follows: EGF-induced BrdU incorporation assay. In kind it is cell-based. The conditions noted are these: read-out: BrdU EGF driven IC50. As to the method: The cellular/catalytic assays described herein are performed in an ELISA format. The general procedure is as follows: a compound is introduced to cells expressing the test kinase, either naturally or recombinantly, for a selected period of time after which, if the test kinase is a receptor, a ligand known to activate the receptor is added. The cells are lysed and the lysate is transferred to the wells of an ELISA plate previously coated with a specific antibody recognizing the substrate of the enzymatic phosphorylation reaction. Non-substrate components of the cell lysate are washed away and the amount of phosphorylation on the substrate is detected with an antibody specifically recognizing phosphotyrosine compared with control cells that were not contacted with a test compound. The cellular/biologic assays described herein measure the amount of DNA made in response to activation of a test kinase, which is a general measure of a proliferative response. The general procedure for this assay is as follows: a compound is introduced to cells expressing the test kinase, either naturally or recombinantly, for a selected period of time after which, if the test kinase is a receptor, a ligand known to activate the receptor is added. After incubation at least overnight, a DNA labeling reagent such as Bromodeoxyuridine (BrdU) or 3H-thymidine is added. The amount of labeled DNA is detected with either an anti-BrdU antibody or by measuring radioactivity and is compared to control cells not contacted with a test compound. […]
Protocol • (1) Cells are seeded at 8000 cells/well in 10% CS, 2mM Gin in DMEM, in a 96 well plate. Cells are incubated overnight at 37° C. in 5% CO2. • (2) After 24 hours, the cells are washed with PBS, and then are serum starved in serum free medium (0% CS DMEM with 0.1% BSA) for 24 hours. • (3) On day 3, ligand (EGF, 2 nM, prepared in DMEM with 0.1% BSA) and test compounds are added to the cells simultaneously. The negative control wells receive serum free DMEM with 0.1% BSA only, the positive control cells receive the ligand (EGF) but no test compound. Test compounds are prepared in serum free DMEM with ligand in a 96 well plate, and serially diluted for 7 test concentrations. • (4) After 20 hours of ligand activation, diluted BrdU labeling reagent (1:100 in DMEM, 0.1% BSA) is added and the cells are incubated with BrdU (final concentration=10 μM) for 1.5 hours. • (5) After incubation with labeling reagent, the medium is removed by decanting and tapping the inverted plate on a paper towel. FixDenat solution is added (50 μl/well) and the plates are incubated at room temperature for 45 minutes on a plate shaker. • (6) The FixDenat solution is thoroughly removed by decanting and tapping the inverted plate on a paper towel. Milk is added (5% dehydrated milk in PBS, 200 μl/well) as a blocking solution and the plate is incubated for 30 minutes at room temperature on a plate shaker. • (7) The blocking solution is removed by decanting and the wells are washed once with PBS. Anti-BrdU-POD solution (1:100 dilution in PBS, 1% BSA) is added (100 μ/well) and the plate is incubated for 90 minutes at room temperature on a plate shaker. • (8) The antibody conjugate is thoroughly removed by decanting and rinsing the wells 5 times with PBS, and the plate is dried by inverting and tapping on a paper towel. • (9) TMB substrate solution is added (100 μl/well) and incubated for 20 minutes at room temperature on a plate shaker until color development is sufficient for photometric detection. • (10) The absorbance of the samples are measured at 410 nm (in “dual wavelength” mode with a filter reading at 490 nm, as a reference wavelength) on a Dynatech ELISA plate reader.
A general note: Uptake of a labelled nucleoside into DNA is a usual measure of proliferation.
Take `COc1c(C(C)C)cc(/C=C2/C(=O)Nc3ccc(Cl)cc32)cc1C(C)C` [Example 2, 5-Chloro-3-(3,5-diisopropyl-4-methoxybenzylidene)-1,3-dihydroindol-2-one]: the IC50 – broadly, the concentration needed to halve the response being measured – is 6.5 µM.

`COc1ccc2c(c1)NC(=O)/C2=C\c1[nH]cc(C)c1CCC(=O)O` [Example 217, 3-[2-(6-Methoxy-2-oxo-1,2-dihydroindol-3-ylidenemethyl)-4-methyl-1H-pyrrol-3-yl]-propionic acid]: the IC50 is over 50 µM.

With `Cc1c[nH]c(/C=C2\C(=O)Nc3ccccc32)c1CCC(=O)O` [Example 215, 3-[4-Methyl-2-(2-oxo-1,2-dihydroindol-3-ylidenemethyl)-1H-pyrrol-3-yl]-propionic acid], the IC50 is over 100 µM.

For the compound `Cc1c[nH]c(/C=C2\C(=O)Nc3ccc(Cl)cc32)c1CCC(=O)O` [Example 216, 3-[2-(5-Chloro-2-oxo-1,2-dihydroindol-3-ylidenemethyl)-4-methyl-1H-pyrrol-3-yl]-propionic acid], the IC50 is over 50 µM.

For `Cc1c[nH]c(/C=C2\C(=O)Nc3cccc(C)c32)c1CCC(=O)O` [Example 218, 3-[2-(4-Methyl-2-oxo-1,2-dihydroindol-3-ylidenemethyl)-4-methyl-1H-pyrrol-3-yl]-propionic acid], the IC50 amounted to 43.5 µM.

For the compound `Cc1c[nH]c(C=C2C(=O)Nc3cc(Cl)ccc32)c1CCC(=O)O` [Example 219, 3-[2-(6-Chloro-2-oxo-1,2-dihydroindol-3-ylidenemethyl)-4-methyl-1H-pyrrol-3-yl]-propionic acid], the IC50 was over 50 µM.

Take `COc1ccc2c(c1)/C(=C/c1[nH]cc(C)c1CCC(=O)O)C(=O)N2` [Example 222, 3-[2-(5-Methoxy-2-oxo-1,2-dihydroindol-3-ylidenemethyl)-4-methyl-1H-pyrrol-3-yl]-propionic acid]: the concentration for half-maximal inhibition (IC50) was over 50 µM.

Take `Cc1c[nH]c(/C=C2\C(=O)Nc3ccc(Br)cc32)c1CCC(=O)O` [Example 220, 3-[2-(5-Bromo-2-oxo-1,2-dihydroindol-3-ylidenemethyl)-4-methyl-1H-pyrrol-3-yl]-propionic acid]: the concentration for half-maximal inhibition (IC50) was over 50 µM.

As to `COc1c(C(C)C)cc(/C=C2/C(=O)Nc3ccccc32)cc1C(C)C` [Example 1, 3-(3,5-Diisopropyl-4-methoxybenzylidene)-1,3-dihydroindol-2-one], the IC50 was 6.6 µM.
